Data as given in patent US6706744B2, “Glucagon antagonists/inverse agonists” (Novo Nordisk A/S, priority 2000, dated 2004).

Legend:
human GIP receptor = molecular target: T1, human GIP receptor (Homo sapiens, UniProt P48546); test: GIP binding assay; conditions: membranes of BHK cells transfected with human GIP receptor; 125I-GIP tracer; SPA
T1 construct: expressed in transfected cells; host or cells: BHK (baby hamster kidney) cells; membrane preparation
T1 sequence (P48546 22-466): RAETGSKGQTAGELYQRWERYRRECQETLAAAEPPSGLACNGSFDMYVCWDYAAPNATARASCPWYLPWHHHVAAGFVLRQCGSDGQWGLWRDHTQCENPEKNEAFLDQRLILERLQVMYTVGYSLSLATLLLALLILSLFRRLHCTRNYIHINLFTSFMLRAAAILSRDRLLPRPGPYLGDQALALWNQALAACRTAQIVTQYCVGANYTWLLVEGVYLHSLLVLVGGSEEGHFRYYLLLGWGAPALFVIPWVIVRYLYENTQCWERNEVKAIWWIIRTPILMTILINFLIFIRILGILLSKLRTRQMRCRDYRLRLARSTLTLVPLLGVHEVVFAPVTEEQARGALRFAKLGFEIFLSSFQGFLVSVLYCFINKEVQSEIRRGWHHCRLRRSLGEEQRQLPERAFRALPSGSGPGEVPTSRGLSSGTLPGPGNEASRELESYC
Description: (§1) BHK (baby hamster kidney cell line) cells are transfected with the human GIP receptor and a membrane preparation of the cells is prepared. Wheat Germ Agglutinin derivatized SPA beads containing a scintillant (WGA beads) (Amersham) bound the membranes. ^125I-GIP bound to human GIP receptor in the membranes and excited the scintillant in the WGA beads to light emission. GIP or samples binding to the receptor competed with ^125I-GIP.
(§2) All steps in the membrane preparation are kept on ice or performed at 4° C. BHK cells are harvested and centrifuged. The pellet is resuspended in homogenisation buffer (25 mM HEPES, pH=7.4, 2.5 mM CaCl2, 1.0 mM MgCl2, 250 mg/l bacitracin, 0.1 mM Pefabloc), homogenised 2×10 sec using Polytron 10-35 homogenizer (Kinematica) and added the same amount of homogenisation buffer as used for resuspension. After centrifugation (15 min at 2000×g) the supernatant is transferred to cold centrifuge tubes and centrifuged for 45 min at 40.000×g. The pellet is resuspended in homogenisation buffer, homogenised 2×10 sec (Polytron) and additional homogenisation buffer is added. The suspension is centrifuged for 45 min at 40.000×g and the pellet is resuspended in resuspension buffer (25 mM HEPES, pH=7.4, 2.5 mM CaCl2, 1.0 mM MgCl2) and homogenised 2×10 sec. (Polytron). The protein concentration is normally around 1.75 mg/ml. Stabilisation buffer (25 mM HEPES, pH=7.4, 2.5 mM CaCl2, 1.0 mM MgCl2, 1% bovine serum albumin, 500 mg/l bacitracin, 2.5 M sucrose) is added and the membrane preparation is stored at −80° C.
The GIP binding assay is carried out in opti plates (Polystyrene Microplates, Packard). 50 μl assay buffer (25 mM HEPES, pH=7.5, 2.5 mM CaCl2, 1.0 mM MgCl2, 0.003% Tween-20, 0.005% bacitracin, 0.05% sodium azide) and 5 μl GIP or test compound (in DMSO) are added to each well. 50 μl tracer (^125I-porcine GIP, 50.000 cpm) and 50 μl membranes (20 μg) containing the human GIP receptor are then added to the wells. Finally 50 μl WGA beads containing 1 mg beads are transferred to the well. The opti plates are incubated for 3.5 hours on a shaker and then settled for 8-48 hours. The opti plates are counted in a Topcounter. Non-specific binding is determined with 500 nM of GIP.

human glucagon receptor = molecular target: T2, human glucagon receptor (Homo sapiens, UniProt P47871); test: Glucagon binding assay (II); conditions: membranes of BHK cells transfected with human glucagon receptor; 125I-glucagon tracer; SPA
T2 construct: expressed in transfected cells; host or cells: BHK (baby hamster kidney) cells; membrane preparation
T2 sequence (P47871 26-477): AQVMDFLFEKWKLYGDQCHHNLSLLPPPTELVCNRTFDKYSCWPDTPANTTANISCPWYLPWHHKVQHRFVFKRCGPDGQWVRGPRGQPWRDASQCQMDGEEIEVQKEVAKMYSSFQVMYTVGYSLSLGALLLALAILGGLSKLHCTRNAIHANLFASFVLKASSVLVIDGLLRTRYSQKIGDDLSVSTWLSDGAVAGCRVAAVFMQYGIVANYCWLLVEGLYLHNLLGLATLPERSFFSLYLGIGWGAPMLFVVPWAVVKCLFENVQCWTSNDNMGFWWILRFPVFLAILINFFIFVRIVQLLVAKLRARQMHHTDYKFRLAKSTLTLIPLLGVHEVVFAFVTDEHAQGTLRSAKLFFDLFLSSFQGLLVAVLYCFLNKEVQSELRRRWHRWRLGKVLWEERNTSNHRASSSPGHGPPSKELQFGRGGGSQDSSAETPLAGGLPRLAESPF
Description: Glucagon Binding Assay (II)
as §1, with “human glucagon” for “human GIP”, “membranes. ^125I-glucagon” for “membranes. ^125I-GIP”, “emission. Glucagon” for “emission. GIP”, “with ^125I-glucagon.” for “with ^125I-GIP.”
as §2, with “0, 1” for “0.1”
The glucagon binding assay is carried out in opti plates (Polystyrene Microplates, Packard). 50 μL assay buffer (25 mM HEPES, pH=7.5, 2.5 mM CaCl2, 1.0 mM MgCl2, 0.003% Tween-20, 0.005% bacitracin, 0.05% sodium azide) and 5 μl glucagon or test compound (in DMSO) are added to each well. 50 μl tracer (^125I-porcine glucagon, 50.000 cpm) and 50 μl membranes (7.5 μg) containing the human glucagon receptor are then added to the wells. Finally 50 μl WGA beads containing 1 mg beads are transferred to the well. The opti plates are incubated for 4 hours on a shaker and then settled for 8-48 hours. The opti plates are counted in a Topcounter. Non-specific binding is determined with 500 nM of glucagon.

IC50 (human GIP receptor)	IC50 (human glucagon receptor)	melting point	Compound
644 nM	0.064 µM		C[C@H](NC(=O)N(Cc1ccc(C(=O)NCCC(=O)O)cc1)c1ccc(C2CCCCC2)cc1)c1ccc(Cl)cc1 [Example 1, 3-{4-[3-[1(S)-(4-Chlorophenyl)ethyl]1-(4-cyclohexylphenyl)ureidomethyl]benzoylamino}propionic acid]
198 nM	0.053 µM		O=C(O)CCNC(=O)c1ccc(CN(C(=O)Nc2cccc(Br)c2)c2ccc(C3=CCCCC3)cc2)cc1 [Example 2, 3-{4-[3-(3-Bromophenyl)-1-(4-cyclohex-1-enylphenyl)ureidomethyl]benzoylamino}propionic acid]
34 nM	0.025 µM		O=C(O)CCNC(=O)c1ccc(CN(C(=O)Nc2cccc(OC(F)(F)F)c2)c2ccc(C3=CCCCC3)cc2)cc1 [Example 3, 3-{4-[3-(3-Trifluoromethoxyphenyl)-1-(4-cyclohex-1-enylphenyl)ureidomethyl]benzoylamino}propionic acid]
90 nM	0.029 µM		O=C(O)CCNC(=O)c1ccc(CN(C(=O)Nc2cc(F)cc(C(F)(F)F)c2)c2ccc(C3CCCCC3)cc2)cc1 [Example 4, 3-{4-[1-(4-Cyclohexylphenyl)-3-(3-fluoro-5-trifluoromethylphenyl)ureidomethyl]benzoylamino}propionic acid]
265 nM	0.042 µM		O=C(O)CCNC(=O)c1ccc(CN(C(=O)Nc2cccc(Br)c2)c2ccc(C3CCCCC3)cc2)cc1 [Example 5, 3-{4-[3-(3-Bromophenyl)-1-(4-Cyclohexylphenyl)ureidomethyl]benzoylamino}propionic acid]
177 nM	0.009 µM		CS(=O)(=O)c1cc(NC(=O)N(Cc2ccc(C(=O)NCCC(=O)O)cc2)c2ccc(C3=CCCCC3)cc2)ccc1OC(F)(F)F [Example 6, 3-{4-[1-(4-Cyclohexen-1-ylphenyl)-3-(3-methanesulfonyl-4-trifluoromethoxyphenyl)ureidomethyl]benzoylamino}propionic acid]
82 nM	0.029 µM		O=C(O)CCNC(=O)c1ccc(CN(C(=O)Nc2cccc(C(F)(F)F)c2)c2ccc(C3CCCCC3)cc2)cc1 [Example 7, 3-{4-[1-(4-Cyclohexylphenyl)-3-(3-trifluoromethylphenyl)ureidomethyl]benzoylamino}propionic acid]
76 nM	0.035 µM		N#Cc1cc(NC(=O)N(Cc2ccc(C(=O)NCCC(=O)O)cc2)c2ccc(C3CCCCC3)cc2)cc(C(F)(F)F)c1 [Example 8, 3-{4-[3-(3-Cyano-5-trifluoromethylphenyl)-1-(4-cyclohexylphenyl)ureidomethyl]benzoyl-amino}propionic acid]
122 nM	0.042 µM		N#Cc1cc(NC(=O)N(Cc2ccc(C(=O)NCCC(=O)O)cc2)c2ccc(C3=CCCCC3)cc2)cc(C(F)(F)F)c1 [Example 9, 3-{4-[3-(3-Cyano-5-trifluoromethylphenyl)-1-(4-cyclohex-1-enylphenyl)ureidomethyl]benzoyl-amino}propionic acid]
107 nM	0.049 µM	167.5 to 168.5 °C	O=C(O)CCNC(=O)c1ccc(CN(C(=O)Nc2ccc(OC(F)(F)F)c(CO)c2)c2ccc(C3CCCCC3)cc2)cc1 [Example 10, 3-{4-[1-(4-Cyclohexylphenyl)-3-(3-hydroxymethyl-4-trifluoromethoxyphenyl)ureidomethyl]benzoylamino}propionic acid]
152 nM	0.064 µM		O=C(O)CCNC(=O)c1ccc(CN(C(=O)Nc2ccc(OC(F)(F)F)c(CO)c2)c2ccc(C3=CCCCC3)cc2)cc1 [Example 11, 3-{4-[1-(4-Cyclohex-1-enylphenyl)-3-(3-hydroxymethyl-4-trifluoromethoxyphenyl)ureidomethyl]benzoylamino}propionic acid]
